In ChEMBL document CHEMBL1221220, “Transport and signaling via the amino acid binding site of the yeast Gap1 amino acid transceptor” (Nat Chem Biol, 2009):
Substitutions are numbered along the chain they refer to. Active and inactive are the calls of the source. The calls are words filed in the database; no cut-off is given here.

Legend:
[1] = tested on: T1, General amino-acid permease GAP1 (Saccharomyces cerevisiae), P19145 [L387C]; experiment: Induction of yeast Gap1 L387C mutant-mediated amino acid uptake at 2 mM in presence of 10 mM MTSEA treated before compound addition
T1 sequence (whole entry): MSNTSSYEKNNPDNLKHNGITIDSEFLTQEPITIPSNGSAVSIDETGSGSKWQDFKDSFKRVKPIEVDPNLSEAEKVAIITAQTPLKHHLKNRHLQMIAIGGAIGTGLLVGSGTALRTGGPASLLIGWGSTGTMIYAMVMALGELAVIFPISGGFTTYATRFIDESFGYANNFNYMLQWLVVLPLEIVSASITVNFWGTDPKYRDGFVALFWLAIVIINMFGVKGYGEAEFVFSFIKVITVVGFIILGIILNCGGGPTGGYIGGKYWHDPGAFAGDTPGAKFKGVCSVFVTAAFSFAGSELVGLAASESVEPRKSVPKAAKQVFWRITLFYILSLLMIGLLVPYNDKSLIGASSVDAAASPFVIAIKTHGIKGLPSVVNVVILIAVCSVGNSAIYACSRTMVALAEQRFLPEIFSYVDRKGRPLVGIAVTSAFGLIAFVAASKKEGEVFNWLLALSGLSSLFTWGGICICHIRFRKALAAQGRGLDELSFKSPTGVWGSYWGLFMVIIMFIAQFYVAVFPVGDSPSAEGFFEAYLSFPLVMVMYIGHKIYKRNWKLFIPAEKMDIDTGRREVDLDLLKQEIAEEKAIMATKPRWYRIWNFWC

[2] = tested on: T2, General amino-acid permease GAP1 (Saccharomyces cerevisiae), P19145 [A385C]; experiment: Activation of yeast Gap1 A385C mutant-mediated amino acid uptake at 10 mM
T2 sequence (whole entry): T1 sequence (whole entry) with A385C, C387L

[3] = tested on: T3, General amino-acid permease GAP1 (Saccharomyces cerevisiae), P19145 [M401C]; experiment: Activation of yeast Gap1 M401C mutant-mediated amino acid uptake at 10 mM
T3 sequence (whole entry): T1 sequence (whole entry) with C387L, M401C

[4] = tested on: T4, General amino-acid permease GAP1 (Saccharomyces cerevisiae), P19145 [V381C]; experiment: Induction of yest Gap1 V381C mutant-mediated trehalose activation at 10 mM
T4 sequence (whole entry): T1 sequence (whole entry) with V381C, C387L

- Activity [1]: Active
- Activity [2]: inactive
- Activity [3]: inactive
- Activity [4]: inactive
Structure (SMILES): NC(=O)NCCC[C@H](N)C(=O)O
